Measurements from PMC3269340, “Pharmacokinetics of memantine in rats and mice” (PLoS Currents, 2012).

Legend:
Assay type in all cases: in vitro ADME
[1] = Stability in human liver microsomes; details: 0.5 mg/mL pooled male microsomes, read-out: Intrinsic Clearance (Cl int) Liver Microsomes
Method: Memantine (1 μM) was incubated in 0.5 mg/mL of pooled male rat, mouse, or human liver microsomes (obtained commercially), in 0.1 M phosphate buffer at 37 °C. After pre-warming the mixture for 5 min, reactions were initiated by the addition of NADPH (1 mM). Aliquots (80 μL) were taken at 0, 5, 10, 20 and 40 min, and the reaction immediately terminated by adding into 80 μL of acetonitrile containing an analytical internal standard (IS). Samples were centrifuged and the supernatant fractions analyzed by LC-MS/MS with multiple reaction monitoring (MRM). All incubations were performed in duplicate. Testosterone was used as the positive control. The MRM area response ratio of the analyte over IS for Time=0(control) was set to 100%, the relative decrease in MRM area ratio intensity over time against that of the control (percent parent decrease) was used to determine the half-life (t1/2) of memantine in the incubation. Half-life values were calculated from the relationship:
t1/2 (min) = -0.693/λ, where λ is the slope of the Ln concentration vs time curve. The intrinsic clearance (Clint) was calculated as:
Clint = (0.693 x incubation volume (μL))/(t½ (min) x mg of microsomal protein)

[2] = biological target: T1, human PEPT2 (Homo sapiens, UniProt Q16348); assay: Indirect uptake transporter assay, PEPT2
T1 construct: expressed in transfected cells; host or cells: CHO cells
T1 sequence (Q16348 1-729): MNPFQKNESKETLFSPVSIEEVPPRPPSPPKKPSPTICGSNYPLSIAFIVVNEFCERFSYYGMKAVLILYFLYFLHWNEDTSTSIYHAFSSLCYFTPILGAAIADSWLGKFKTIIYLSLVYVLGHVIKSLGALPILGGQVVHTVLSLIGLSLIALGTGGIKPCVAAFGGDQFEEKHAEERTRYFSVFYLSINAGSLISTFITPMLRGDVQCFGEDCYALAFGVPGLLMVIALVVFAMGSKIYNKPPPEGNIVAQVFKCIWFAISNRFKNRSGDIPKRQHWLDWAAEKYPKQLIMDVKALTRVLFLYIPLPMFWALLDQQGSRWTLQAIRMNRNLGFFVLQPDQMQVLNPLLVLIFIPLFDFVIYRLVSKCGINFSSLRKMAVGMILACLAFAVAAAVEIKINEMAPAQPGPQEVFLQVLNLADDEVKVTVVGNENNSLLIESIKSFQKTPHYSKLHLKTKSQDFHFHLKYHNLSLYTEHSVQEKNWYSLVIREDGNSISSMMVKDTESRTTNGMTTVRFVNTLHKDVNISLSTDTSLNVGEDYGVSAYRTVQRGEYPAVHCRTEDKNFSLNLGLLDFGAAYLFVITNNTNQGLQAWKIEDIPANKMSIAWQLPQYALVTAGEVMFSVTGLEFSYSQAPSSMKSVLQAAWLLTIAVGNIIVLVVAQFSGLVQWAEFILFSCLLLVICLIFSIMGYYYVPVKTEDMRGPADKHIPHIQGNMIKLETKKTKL
Excerpt: To determine whether memantine is an inhibitor of the human OATP2B1 (OATP-B), OCT1, OCT2, OAT3, PEPT1, PEPT2 uptake transporters. The standard uptake transporter assay is an indirect, inhibitory-type screening assay, performed with cold test article, which in this case was memantine. It provides information on any interaction (substrate or inhibitor) between selected uptake transporters and memantine that would affect the transport of the reporter compound. […] A radiolabeled reporter substrate is transported into the cells transfected with the selected human uptake transporter, and the inhibitory effect of memantine on the transport of this reporter substrate is measured. Values are presented on a relative scale; 100% defined as transport in the presence of the solvent and without memantine (no inhibition), and 0% defined as transport detected without transporter activity. IC50 is defined as the concentration required to inhibit the transport of the reporter substrate by 50%. […]
After the experiment cells were rinsed with 2 x 100µl of Krebs-Henseleit buffer and lysed with 50 µl of 0.1M NaOH. ^3H-estrone-3-sulfate, ^14C-TEA, ^14C-metformin and ^3H-Gly-Sar transport was determined by total radioactivity by transferring an aliquot (35µl) from each well to a vial containing liquid scintillant for analysis.

[3] = biological target: T1, human PEPT2; assay: Direct uptake transporter assay, PEPT2; details: for Accumulation in transporter transfected cells: PEPT2-transfected cells; for Accumulation in parental cells: parental CHO cells (PEPT2 line)
Method: To determine whether memantine is a substrate of the human OATP2B1 (OATP-B), OCT1, OCT2, OAT3, PEPT1, PEPT2 uptake transporters.
The potential for memantine to be a substrate of an uptake transporter was determined directly by comparing the uptake of memantine into cells expressing the selected uptake transporter with its uptake into control cells. Memantine was added to transporter-expressing and control cells at two concentrations (PEPT1 and PEPT2 100 and 300 µM, OCT1 and OCT2 50 and 100 µM, OATP2B1 100 and 300 µM), and incubated with cells for 2 and 20 min at 37±1°C (75 µL final incubation volume). The final concentrations of memantine were selected to be the IC50 of reporter substrate transport inhibition established in the indirect transporter assay and one order of magnitude lower. Incubations were carried out as described in the indirect uptake transporter assays. The concentration of memantine was determined by LC-MS/MS.

CC12CC3CC(C)(C1)CC(N)(C3)C2 [memantine]
microsomal CLint at 1 μM [1]: < 13.9 µL/min/mg
IC50 ([2]; PEPT2, probe printed in Table 5: E3S (0.3µM), methods and text: Gly-Sar): ND (Not Determined (< 50% inhibition))
inhibition at 300 µM ([2]; at 300 µM, read-out: inhibition of PEPT2-mediated glycylsarcosine transport): 22%
Highest Fold Activation ([3]; PEPT2, 100µM, 20 min): 0.97 (100µM, 20 min)
Accumulation in transporter transfected cells ([3]; 2 min, 100 µM): 937 pmol/mg
Accumulation in transporter transfected cells ([3]; 2 min, 300 µM): 1871 pmol/mg
Accumulation in transporter transfected cells ([3]; 20 min, 100 µM): 897 pmol/mg
Accumulation in transporter transfected cells ([3]; 20 min, 300 µM): 1759 pmol/mg
substrate of PEPT2 uptake transporter ([3]; no preferential accumulation in transfected over parental cells): not a substrate
Accumulation in parental cells ([3]; 2 min, 100 µM): 965 pmol/mg
Accumulation in parental cells ([3]; 2 min, 300 µM): 2011 pmol/mg
Accumulation in parental cells ([3]; 20 min, 100 µM): 1219 pmol/mg
Accumulation in parental cells ([3]; 20 min, 300 µM): 2056 pmol/mg
